ChEMBL document CHEMBL5107961, “Design, synthesis, and biological evaluation of C6-difluoromethylenated epoxymorphinan Mu opioid receptor antagonists” (RSC Med Chem, 2022)

Target: Mu-type opioid receptor (Homo sapiens, UniProt P35372)
Type: functional, cell-based, CHO-K1
Description: Antagonist activity at human MOR expressed in CHO-K1 cells assessed as reduction in fentanyl induced cAMP production incubated for 30 mins by Lance ultra cAMP assay

Sequence of Mu-type opioid receptor (P35372 whole entry): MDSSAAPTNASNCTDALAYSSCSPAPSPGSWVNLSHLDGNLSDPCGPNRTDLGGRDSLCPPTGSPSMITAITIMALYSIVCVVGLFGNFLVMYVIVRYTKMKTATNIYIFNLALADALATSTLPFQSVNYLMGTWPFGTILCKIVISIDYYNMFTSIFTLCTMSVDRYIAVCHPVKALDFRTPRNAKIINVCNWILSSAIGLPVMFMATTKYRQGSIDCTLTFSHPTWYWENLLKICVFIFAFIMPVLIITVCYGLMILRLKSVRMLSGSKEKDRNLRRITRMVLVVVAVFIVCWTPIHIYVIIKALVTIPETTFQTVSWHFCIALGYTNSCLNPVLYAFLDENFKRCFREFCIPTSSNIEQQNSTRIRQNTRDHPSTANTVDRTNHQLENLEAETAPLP

## Oc1ccc2c3c1O[C@H]1C(=C(F)F)CC[C@@]4(O)[C@@H](C2)N(CC2CC2)CC[C@]314
  IC50: 5.1 nM
